According to article PMC12560828, “Chemical structure drives developmental toxicity of alkyl-substituted naphthalenes in zebrafish” (Environment international, 2025):

Columns and labels:
[1] = test system: early life stage zebrafish; design: method as in Geier et al., 2018a; conditions: 96-well plate format; ref Geier et al., 2018a; cited from earlier work
[2] = test system: zebrafish larvae, 120 hpf; assay: Larval photomotor response (LPR) assay after vial exposure; type: in vivo, Danio rerio; conditions: LPR
Outline: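 Embryos bleached at 6 hpf, exposed in sealed glass vials (8 per vial, DMSO stock at 200x) with rotation overnight at 28 °C, then singulated into chemical-free medium and kept dark at 28 °C. Movement tracked minutes 6–24 at 120 hpf, 6 s bins log-normalized to AUC; LEL per light/dark period from first cycle; nominal water concentrations, dead/malformed larvae excluded.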

Question: What does the source list for `Cc1ccc2cc(C)ccc2c1` [2,6-dimethylnaphthalene]?
Answer: LPR effects [1]: all but 2,6-dimethylnaphthalene caused LPR effects; fold_change ([2]; period dark, round 1, conc 3.125): -0.2769; fold_change ([2]; period dark, round 1, conc 6.25): -0.4387; fold_change ([2]; period dark, round 1, conc 12.5): -0.1031; fold_change ([2]; period dark, round 1, conc 25): -0.6771; fold_change ([2]; period dark, round 1, conc 50): -0.3061; fold_change ([2]; period light, round 1, conc 3.125): -0.2359; fold_change ([2]; period light, round 1, conc 6.25): -0.1972; fold_change ([2]; period light, round 1, conc 12.5): 0.2009; fold_change ([2]; period light, round 1, conc 25): -0.2222; fold_change ([2]; period light, round 1, conc 50): -0.2493
